The target in one data set is Acetylcholinesterase (Homo sapiens, UniProt P22303).
The nature of data set [1]: physchem. To be noted: buffer, pH 7.5.
Description: Lipophilic dissociation constant is determined as a measure of partitioning of neutral molecules at pH 7.5
Data set [2] is described as follows: physchem.
Description: Compound was evaluated for its acid dissociation constant
Data set [3] can be described thus: physchem. The settings on record: octanol/water.
Description: Partition coefficient (logP)

Sequence of Acetylcholinesterase (P22303 whole entry): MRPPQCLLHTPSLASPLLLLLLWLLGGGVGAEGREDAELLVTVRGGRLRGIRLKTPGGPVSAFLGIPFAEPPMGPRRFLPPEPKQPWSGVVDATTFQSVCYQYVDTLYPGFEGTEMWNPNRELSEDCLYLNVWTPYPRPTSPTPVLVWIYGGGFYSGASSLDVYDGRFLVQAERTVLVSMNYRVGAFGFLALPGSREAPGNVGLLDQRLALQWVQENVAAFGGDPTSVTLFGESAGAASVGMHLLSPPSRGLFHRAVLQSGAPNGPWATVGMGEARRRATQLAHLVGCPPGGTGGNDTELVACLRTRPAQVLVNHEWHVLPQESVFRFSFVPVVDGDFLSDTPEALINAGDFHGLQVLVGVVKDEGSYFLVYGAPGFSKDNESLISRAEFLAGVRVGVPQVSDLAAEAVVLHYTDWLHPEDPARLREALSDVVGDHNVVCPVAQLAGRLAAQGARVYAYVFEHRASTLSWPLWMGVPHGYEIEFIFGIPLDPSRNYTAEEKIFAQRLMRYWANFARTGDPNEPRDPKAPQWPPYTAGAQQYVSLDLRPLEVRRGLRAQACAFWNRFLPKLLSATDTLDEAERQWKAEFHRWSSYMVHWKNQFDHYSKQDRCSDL
Description for Acetylcholinesterase: In vitro inhibition of acetylcholinesterase isolated from human erythrocytes.

Turning to `Nc1c2c(nc3ccccc13)OCCC2`, the IC50 at Acetylcholinesterase came to 266 nM. Further, the logD in the data set “physchem [1]” was found to be 1.37. The same compound came in with a pKa in the data set “physchem [2]” of 7.8. Further, the logP in the data set “physchem [3]” was found to be 1.86.
In turn, `Nc1c2c(nc3cccc(Cl)c13)CCCC2` came in with an IC50 against Acetylcholinesterase of 39 nM. The compound also yielded a pKa in the data set “physchem [2]” of 9.3.
The like results for `Nc1c2c(nc3cnccc13)CCCC2` were, in that order, 2600 nM and 7.3.
The like results for `Nc1c2c(nc3c1CCCC3)CCCC2` [OCTAAMINOACRIDINE] were, in that order, 360 nM and 11.
The like results for `Nc1c2c(nc3cccc(F)c13)CCCC2` were, in that order, 78 nM and 9.1.
On to `Nc1c2c(nc3c1CCCO3)CCCC2`, for which 455 nM corresponded to half-maximal inhibition on Acetylcholinesterase (IC50). The pKa in “physchem [2]” stood at 7.8.
Consider `COc1cccc2nc3c(c(N)c12)CCCO3`, for which half-maximal inhibition on Acetylcholinesterase (IC50) required 606 nM. In addition, the pKa in the data set “physchem [2]” was 8.11.
`Cc1cccc2nc3c(c(N)c12)CCCO3` showed an IC50 at Acetylcholinesterase of 150 nM. In the data set “physchem [1]”, this compound registered a logD of 1.63. Moreover, the pKa in the data set “physchem [2]” is 8.06. For the same compound, in the data set “physchem [3]”, the logP is 2.28.
For the compound `Nc1c2c(nc3ncccc13)OCCC2`, the IC50 at Acetylcholinesterase stood at 6260 nM. Moreover, the pKa in “physchem [2]” was 6.4.
For the compound `Nc1c2c(nc3c1CCC3)CCCC2` [IPIDACRINE], the pKa in “physchem [2]” is 10.2.
In turn, `Nc1c2c(nc3ccc(Cl)cc13)CCCC2` yielded an IC50 on Acetylcholinesterase of 3680 nM.
`COc1cccc2nc3c(c(N)c12)CCCC3` came in with an IC50 at Acetylcholinesterase of 615 nM. Further, the pKa in the data set “physchem [2]” turned out to be 10.4.
The like results for `Nc1c2c(nc3cnccc13)OCCC2` were, in that order, 42 nM and 5.6.
The compound `Cc1cccc2nc3c(c(N)c12)CCCC3` registered an IC50 at Acetylcholinesterase of 99 nM. This compound also had a pKa in “physchem [2]” of 9.98.
The like results for `Nc1c2c(nc3cccc(F)c13)OCCC2` were, in that order, 335 nM and 6.9.
For `Nc1c2c(nc3ncccc13)CCCC2`, on Acetylcholinesterase, half-maximal inhibition (IC50) was put at 429 nM. Also, the pKa in “physchem [2]” amounted to 8.8.
Turning to `Nc1c2c(nc3c1CCCO3)CCC2`, the IC50 at Acetylcholinesterase stood at 1120 nM. This compound registered a pKa in the data set “physchem [2]” of 7.8.
The compound `Nc1c2c(nc3cccc(Cl)c13)OCCC2` returned an IC50 against Acetylcholinesterase of 313 nM. This compound also showed a pKa in the data set “physchem [2]” of 6.6.
In the case of `Nc1c2c(nc3ccc(Cl)cc13)OCCC2`, on Acetylcholinesterase, the IC50 came out at 9810 nM.

The term IC50 denotes the point on the concentration scale where inhibition reaches its midpoint. A high value points to lower potency. The term logD denotes the decadic logarithm of the distribution of all forms, ionised or not, between an organic phase and buffer at a given pH. A lower logD goes with lower lipophilicity. What is called pKa is the negative logarithm of the acid dissociation constant. Low readings indicate a stronger acid or weaker base, high ones a weaker acid or stronger base. Usually logP stands for the decadic logarithm of the partition coefficient of the neutral form, usually between octanol and water. Read a high logP as a more lipophilic compound.

The values above are taken from ChEMBL document CHEMBL1126001, “Physical parameters for brian uptake: optimizing log P, log D and pKa of T H A” (Bioorg Med Chem Lett, 1991).
